Here are results for three compounds from US9170253B2, “Method and device for measuring multiple physiological properties of cells” (Seahorse Bioscience, priority 2003, dated 2015).

For test [1], the system named is C2C12 Myoblasts. Briefly: Effect of 2,4 DNP on O2, CO2 and pH flux rates of C2C12 myoblasts (prototype enclosed sample chamber). In kind it is cell-based, murine. To be noted: for CO2 Rate / O2 Rate / pH Rate: 20 minute measurement. From the text: (§1) The device included a cylindrical vessel, fabricated from polycarbonate material, and designed to receive a 12 mm diameter, polycarbonate membrane assembly (Corning Snapwell™ P/N 3802) with a pore size of approximately 3 μm. A cylindrical polycarbonate cover could be temporarily inserted into the vessel to form a smaller sample chamber, approximately 1.5 mm high, with a volume of about 160 microliter (μl). A series of bores around the perimeter of the vessel allowed the insertion of three 500 μm diameter optical fibers. The distal tip of each optical fiber was coated with a fluorescent sensing material to form a biosensor.
(§2) The three biosensors were designed to measure the partial pressures of O2 and CO2, and the pH of the media contained within the vessel. One fiber tip was coated with a matrix of Ruthenium dyes, encapsulated in oxygen permeable silicone rubber, to provide a readout of dissolved oxygen concentration. A second fiber tip was coated with a complex of Fluoroscene dye encapsulated in silicone rubber, to provide a readout of H^+ ion concentration (pH). A third biosensor was fabricated by using a CO2 permeable membrane to create a small reservoir of NaHCO3 surrounding a HydroxyPyrene Trisodium Salt (HPTS) pH sensitive dye. A change in CO2 concentration in the cell media would then cause a change in pH of this encapsulated reagent resulting in a measurable change in the fluorescent properties of the pH sensitive dye, and this change was calibrated to provide quantitative CO2 concentration data.
(§3) To determine the extracellular flux rates of O2 and CO2, the rates of change of partial pressures were divided by volume of each analytes available in the media (moles) to result in a value expressed in nmol/minute. The rate of acidification was expressed in mpH units/min (multiplied by 20 for scaling on the chart), but can easily be shown as protons per minute by calculating the number of available […] in the media buffer within the known sample volume.
In this experiment, C2C12 myoblasts were seeded on 12 mm diameter polycarbonate membranes and incubated for 12 hours. Wells were then removed from the incubator, inspected visually, and placed into the measurement device. 160 μl of NaHCO3-free DMEM medium was then added, and the device was assembled to form an enclosed sample chamber.
The dissolved concentrations of O2 and CO2, and the pH in the media were then measured every 5 seconds for a period of 20 minutes in order to determine a control baseline for each analyte flux. Once the baseline was established, a sequence of experiments were performed where varying doses of 2,4 DNP (obtained from Sigma, St. Louis Mo.) were added to the cell media and a 20 minute measurement of analyte flux rates was performed. A control experiment was also performed using the highest dose of 2,4 DNP, but without cells.

For test [2], the system named is C2C12 Myoblasts. Kind of test: Effect of Rotenone on O2, CO2 and pH flux rates of C2C12 myoblasts (prototype enclosed sample chamber). The class given is cell-based, murine. On the set-up: key to O2 Rate / CO2 Rate: flux rate in nmol/minute. To be noted: for CO2 Rate / O2 Rate / pH Rate: 20 minute measurement.
From the text: as §1, §2, §3
Rotenone is known to inhibit cellular respiration by blocking NADH dehydrogenase in the respiratory chain. C2C12 Myoblasts were used to show this effect. 1.5×10^5 C2C12 myoblasts were seeded on membranes, incubated and placed in the measurement system along with 150 μl NaHCO3-free DMEM medium of as described in Example 3.
The dissolved concentrations of O2 and CO2, and the pH in the media were then measured every 5 seconds for a period of 20 minutes in order to determine a control baseline for each analyte flux. Once the baseline was established, a sequence of experiments were performed where varying doses of Rotenone (obtained from Sigma, St. Louis Mo.) were added to the cell media and a 20 minute measurement of analyte flux rates was performed. A control experiment was also performed using the highest dose of Rotenone, but without cells.

Another test has as its system CHO-M3 cells. Kind of test: Effect of carbachol on O2 consumption, CO2 production and extracellular acidification rates of CHO-M3 cells (stop flow cycles). In kind it is cell-based, Chinese hamster. From the text:
Chinese hamster ovary (CHO) cells were transfected to over-express the muscarinic receptor subtype m3. The prototype device described in Example 1 was then used to monitor O2 consumption, CO2 production, and extracellular acidification rates, following treatment with the well-known, general acetylcholine receptor agonist, Carbachol.
Materials and Methods: Cell culture reagents were obtained from Gibco BRL (Grand Island, N.Y.). Carbachol was purchased from Sigma Chemical Co. (St. Louis, Mo.). Bicarbonate-free DMEM medium was obtained from Specialty Media (Phillipsburg, N.J.). Polycarbonate membrane snapwells (12 mm diameter, 3 μm pore size) were obtained from Corning (Corning, N.Y.). CHO cells expressing m3-muscarinic receptors (CHO-M3 cells) were obtained from the American Type Tissue Culture (ATCC; Manassas, Va.). Cells were cultured in Ham's F-12 medium supplemented with 10% fetal bovine serum (Hyclone), 1% GlutaMax and 0.1% Gentamicin and were maintained in a 5% CO2 incubator. Cells were subcultured when they reached 80% confluency. CHO-M3 cells were seeded at a density of 2×10^5 onto a snapwell 24 hours prior to use. Immediately prior to testing, cells on snapwells were switched to bicarbonate-free DMEM medium combined with 3.7 g/l NaCl to maintain osmolarity (medium pH 7.4-7.5).
Protocol Description: Probes were calibrated immediately prior to testing. The bottom of the test vessel was filled with bicarbonate-free medium. The snapwell was removed from a 5% CO2 incubator, and the regular growth medium (Ham's F-12) was replaced with bicarbonate-free DMEM medium. Thereafter, the snapwell was placed into the test vessel. Bicarbonate-free medium was pipetted onto the top of the snapwell, and the cover piece of the test vessel was placed gently on top of the snapwell and screwed into place, compressing the assembly. The probe software was started, and the pH, CO2 and O2 analytes were measured over the next 3.5 hours. Following the initial 1.5 hours of perfusion at a rate of 78 μl/min, a series of stop flow (10 minutes each) and medium re-perfusion (10 minutes each, 78 μl/min) cycles were started. During the last 2 minutes of medium re-perfusion cycle number 5, 100 μM carbachol was perfused across the snapwell. During re-perfusion number 6, bicarbonate-free DMEM medium was once again perfused across the snapwell. A rate of change for the analytes was calculated during each stop flow cycle.
The first four series of perfusion/stop flow cycles were done to establish a noise band on the three analytes prior to carbachol treatment during perfusion number 5. Bicarbonate-free medium re-perfusion during per perfusion number 6 and the rates calculated during stop flow number 6 were to assess potential continuing post-carbachol treatment effects on analytes' rates. Resulting data are shown below in Table 6 and in FIG. 11.

Setting [3] is: Rotenone dose 25 (unit not given).
Where [4] appears, read: Rotenone dose 50 (unit not given).
The mark [5] stands for this setting: Rotenone dose 100 (unit not given).
Where [6] appears, read: Rotenone dose 200 (unit not given).
Where [7] appears, read: Stop Flow 5, after 2-minute exposure to 100 μM carbachol.
Setting [8] is: Stop Flow 6, post-carbachol, after re-perfusion with bicarbonate-free medium.

For the compound `O=[N+]([O-])c1ccc(O)c([N+](=O)[O-])c1` [2,4 DNP], in the test on C2C12 Myoblasts [1] (2,4 DNP dose 10 μm), the CO2/O2 amounted to 2.18, the O2/pH was determined as 0.46, the “CO2 Rate” value came out at 2.78 nM/min and the “O2 Rate” value came to 1.26 nM/min. Also, the “pH Rate” value in the test on C2C12 Myoblasts [1] (2,4 DNP dose 10 μm) turned out to be 0.028 pH/min. In addition, in the test with C2C12 Myoblasts [1] (2,4 DNP dose 50 μm), the CO2/O2 was determined as 2.13, the O2/pH was determined as 0.64, the “CO2 Rate” value came to 4.24 nM/min and the “O2 Rate” value is 1.99 nM/min. The “pH Rate” value in the test on C2C12 Myoblasts [1] (2,4 DNP dose 50 μm) is on record as 0.031 pH/min. In the test on C2C12 Myoblasts [1] (2,4 DNP dose 100 μm), the CO2/O2 is on record as 2.00, the O2/pH worked out at 0.73, the “CO2 Rate” value is given as 4.59 nM/min and the “O2 Rate” value came out at 2.30 nM/min. The “pH Rate” value in the test on C2C12 Myoblasts [1] (2,4 DNP dose 100 μm) was determined as 0.032 pH/min. For the same compound, in the test with C2C12 Myoblasts [1] (over doses of Table 3), the “O2 consumption rates (effect of treatment)” value is “dose-dependent increase” and the “extracellular acidification (effect of treatment)” value is “little effect”.
As for `C=C(C)[C@H]1Cc2c(ccc3c2O[C@@H]2COc4cc(OC)c(OC)cc4[C@@H]2C3=O)O1` [Rotenone], in the test on C2C12 Myoblasts [2] (setting [3]), the CO2/O2 was 4.00, the O2/pH came to 0.17, the “CO2 Rate” value is given as 1.76 and the “O2 Rate” value was determined as 0.44. In addition, in the test on C2C12 Myoblasts [2] (setting [3]), the “pH Rate” value was 0.026. Further, in the test with C2C12 Myoblasts [2] (setting [4]), the CO2/O2 stood at 8.02, the O2/pH is on record as 0.08, the “CO2 Rate” value is given as 2.08 and the “O2 Rate” value was determined as 0.26. Moreover, in the test with C2C12 Myoblasts [2] (setting [4]), the “pH Rate” value is listed as 0.031. Further, in the test with C2C12 Myoblasts [2] (setting [5]), the CO2/O2 came to 12.18, the O2/pH was determined as 0.09, the “CO2 Rate” value is given as 2.34 and the “O2 Rate” value is 0.19. Besides, in the test with C2C12 Myoblasts [2] (setting [5]), the “pH Rate” value turned out to be 0.023. Moreover, in the test with C2C12 Myoblasts [2] (setting [6]), the CO2/O2 was determined as 69.84, the O2/pH is reported as 0.02, the “CO2 Rate” value was 2.24 and the “O2 Rate” value came to 0.04. The “pH Rate” value with C2C12 Myoblasts [2] (setting [6]) worked out at 0.027. Further, in the test with C2C12 Myoblasts [2] (over doses of Table 4), the “O2 consumption rate (effect of treatment)” value is “dose-dependent decrease”.
With `C[N+](C)(C)CCOC(N)=O` [carbachol, Carbachol], in the test on CHO-M3 cells (2-minute exposure to carbachol), the “CO2 rate versus baseline” value was “increases above baseline levels” and the “O2 rate versus baseline” value is “increases above baseline levels”. In addition, in the test with CHO-M3 cells (2-minute exposure to carbachol, 0.01 PHU/min baseline), the “change in pH rate versus average baseline” value is given as “doubling”. Moreover, in the test on CHO-M3 cells (setting [7]), the CO2 Rate is 0.20 nmol/min, the “O2/CO2 Ratio” value is reported as 1.99, the “O2/pH Ratio” value was determined as 0.26 and the O2 Rate stood at 0.40 nmol/min. This compound also yielded a pH Rate in the test with CHO-M3 cells (setting [7]) of 0.02 PHU/min. In the test with CHO-M3 cells (setting [8]), the CO2 Rate was 0.10 nmol/min, the “O2/CO2 Ratio” value was found to be 3.34, the “O2/pH Ratio” value worked out at 0.29 and the O2 Rate stood at 0.33 nmol/min. Besides, the pH Rate in the test on CHO-M3 cells (setting [8]) is recorded as 0.01 PHU/min. Moreover, the “Post-treatment rates versus pre-treatment values” in the test on CHO-M3 cells (stop flow period number 6) is “essentially returned to pre-treatment values”.
